Laboratory results reported in US11801235B2, “Methods and compositions for delivery of biotin to mitochondria” (priority 2020, dated 2023).
Square brackets hold non-standard residues; d marks the D form. Peptide text beside a SMILES is read from it. * marks the point of attachment. Biotin = O=C1N[C@H]2[C@H](CS[C@H]2CCCCC(=O)*)N1

Columns and labels:
[1] = system: ARPE-19 cells; experiment: In vitro scratch assay (scratch area); assay type: cell-based, human
Source text: (§1) Certain exemplary peptide-conjugated biotin molecules can accelerate wound healing in cell cultures. The in vitro scratch assay is an easy and well-developed method to measure cell proliferation and migration over a “wound area” in vitro. This assay involves creating a “scratch” in a cell monolayer with a pipette tip and then examining the rate at which cells proliferate and migrate to close the scratch.
(§2) The scratch area was examined immediately (day 0) using a Nikon Eclipse Ti2 fluorescence microscope. Six different field were captured for each sample using 4×objective. The scratch area (cell-free zone) was calculated using ImageJ software, an open-source Java image processing program inspired by NIH Image (National Institute of Health). The scratch area was re-examined after 24 hours (day 1), and the area was normalized to the area determined on day 0 for the same sample. All results were calculated as change from no-treatment control and averaged for the six fields.

[2] = system: ARPE-19 cells; experiment: Cell number and viability after 30 days of serum deprivation; assay type: cell-based, human; conditions: 10 nM
Description: Cell viability was measured using the Alamar Blue Cell Proliferation Assay (Bio-Rad), according to manufacturer's protocol. Alamar Blue uses resazurin to measure reducing power of living cells. The weakly fluorescent resazurin is reduced to the highly fluorescent resorufin when reduced by cellular metabolism. Briefly, alamar blue reagent (10 ul) was added to the culture medium and incubated for 1 h at 37° C. Fluorescence from resorufin (Ex/Em 530/590 nm) was detected using a microplate reader (SpectraMax iD3, Molecular Devices).
In the second model, ARPE-19 cells were grown in serum-free DMEM in the absence or presence of peptide-conjugated biotin molecules for 30 days. Serum-free media was supplemented with 10 nM of SPN12, SPN15 or SPN16 compounds (all at 10 nM) was replaced every 3 days. Culture medium was replaced every 3 days.

[3] = system: ARPE-19 human retinal pigment epithelial cells; experiment: Mitochondrial localization: co-localization with cytochrome c oxidase subunit 4 (COX4); assay type: cell-based; conditions: ARPE-19 cells, 1 uM, 2 hours, serum-free DMEM/F12
Description: Cells were fixed with 4% PFA at RT for 10 min and then permeabilized with 0.1% Triton X-100 at RT for 10 min. Cells were blocked with 2% BSA (bovine serum albumin) at RT for 30 min, and then incubated with primary antibody for cytochrome c oxidase subunit 4 (COX4), a major protein complex expressed on the inner mitochondrial membrane. The rabbit polyclonal COX4 antibody (Invitrogen PAS-29992, Waltham, MA) was used at 1:500 dilution in 2% BSA at 4° C. overnight.

[4] = system: ARPE-19 human retinal pigment epithelial cells; experiment: Biotin uptake by streptavidin-Alexa Fluor 594 fluorescence in ARPE-19 cells; conditions: 1 uM, 1-hour incubation, serum-free
Description: Cellular uptake and localization of peptide-conjugated biotin molecules were determined in HK-2 human renal epithelial cells and ARPE-19 human retinal pigment epithelial cells (ATCC, Manassas, VA). HK-2 cells were cultured in Dulbecco's Modified Eagle's Medium (DMEM) containing 1 g/L glucose and 10% fetal bovine serum (FBS), 100 units/ml penicillin and 100 ug/ml streptomycin. ARPE-19 cells were cultured in DMEM/F12 medium containing 1 g/L glucose and 10% fetal bovine serum (FBS), 100 units/ml penicillin and 100 ug/ml streptomycin. Cells were incubated in humidified incubator with 5% CO2 at 37° C. HK-2 cells and ARPE-19 cells were seeded in 35 mm dish at an initial density of 5×10^4 cells. FBS was removed from the culture medium for 3 days to deplete endogenous biotin in the cells. […]
Biotin uptake was determined using Streptavidin binding. […] By using Alexa Fluor 594-conjugated streptavidin, it is possible to visualize biotin uptake using fluorescence microscopy. […] Live cell image buffer was added and Alexa-594 fluorescence (Ex/Em=591/614 nm) and Hoechst fluorescence ([…]) was observed using the Nikon Eclipse Ti2 fluorescence microscope (100×oil objective). Ten random fields from each sample were quantified by NIS-Elements Imaging Software (Nikon) for streptavidin fluorescence and normalized to Hoechst fluorescence to account for number of cells per field.

[5] = system: Human retinal pigment epithelial cells (ARPE-19); experiment: Mitochondrial potential (TMRM/MitoView Green) after serum starvation; assay type: cell-based; conditions: ARPE-19 cells, 3 days of serum starvation, then 1 uM for 2 hours
Description: ARPE-19 cells were seeded in 35 mm glass plates at an initial density of 5×10^4 cells. […] Cells were then incubated in serum-free DMEM/F12 alone (control group) or DMEM/F12 containing 1 uM of SPN12 or SPN15 for 2 hours.
To determine mitochondrial potential, live cells were incubated with 5 nM tetramethylrhodamine methyl ester (TMRM, #70017, Biotium, Fremont, CA) in DMEM without phenol red. TMRM is a potential-dependent fluorescent dye (Ex/Em=548/573). TMRM accumulates in negatively charged polarized mitochondria and can be detected as red fluorescence. Total mitochondria were imaged with a mitochondrial potential-independent fluorescent dye (100 nM MitoView Green; Ex/Em=490/523; #70054, Biotium, Fremont CA). Hoechst 33342 (10 ug/ml, Novus Biologicals, Centennial, CO) was added to stain nuclei. Live cells were covered with phosphate buffer and imaged using the Nikon Eclipse Ti fluorescent microscopy using the 60×water objective.

[6] = system: HK-2 cells; experiment: In vitro scratch assay (scratch area); assay type: cell-based, human; conditions: 10 nM, serum-free, 24 hours
Description: as §1
3×10^5 cells were plated per well in 6-well plates in DMEM at 37° C. in a humidified incubator with 5% CO2 for one day prior to the experiment. To mimic the microenvironment of wounds in vitro, serum-free medium was used in the scratch assay. On the day of the scratch assay, the medium was replaced with serum-free DMEM, and a line scraped across the cell monolayer using a p1000 pipette tip. Cells were washed to remove cell debris and replaced with DMEM alone (control), or DMEM containing 10 nM biotin or peptide-conjugated biotin molecules.
as §2

[7] = system: mouse retina; conditions: 30 mg/kg ip
Description: SPN15 (30 mg/kg) was administered ip to a 13-month-old male mouse (C57BL/6J strain). At 2-hours after administration, the mouse was anesthetized with an overdose of ketamine/xylazine, and the eyes enucleated. After the cornea and lens were removed, the eyecup was fixed for 1.25 hours in 4% paraformaldehyde in 0.1M Tris buffer. The eyecup was then rinsed 3 times for 10 minutes each in Tris buffer and then cryoprotected in 10%, 20%, and 30% sucrose before sectioning at 30 um with a Leica 3050 cryostat. Sections were stored at −20° C. until used.
To label biotin on SPN15, sections were incubated with Streptavidin conjugated AlexaFluor 594 (1:500) from Jackson ImmunoResearch, West Grove, PA). ToPro 3 (nuclear stain, 1:1000, Molecular Probes) was used to stain cell nuclei. Mitochondria localization was determined using an antibody to Cox IV (cytochrome c oxidase subunit 4; PA529992, 1:300, Invitrogen) and Mitotracker Red (1:1500 in Tris, Invitrogen). All incubations were carried out in microwave (150W) except for Cox IV and Mitotracker labeling, which was done with primary antibody overnight at 4° C. followed by secondary antibody (AF488 conjugated donkey anti-rabbit, Jackson Immunoresearch). Sections were imaged using the Olympus Fluoview 300 with helium, argon and neon lasers using 40× oil immersion lens at a resolution of 1024×1024.

[8] = mouse, 2 hours after administration

N=C(N)NCCC[C@@H](N)C(=O)N[C@@H](Cc1ccc(O)cc1)C(=O)N[C@H](CCCNC(=N)N)C(=O)N[C@@H](Cc1ccccc1)C(=O)N[C@@H](CCCCNC(=O)CCCC[C@@H]1SC[C@@H]2NC(=O)N[C@@H]21)C(N)=O [SPN15, D-Arg-L-Tyr-D-Arg-L-Phe-L-Lys(biotinyl)-NH2] (H-[dR]Y[dR]FK(Biotin)-NH2; N-terminus assumed)
wound healing (scratch closure), FIG. 18 [1]: accelerated wound healing
cell viability after serum deprivation compared to control, FIG. 9 ([2]; 30 days of serum deprivation): doubled
cell number after prolonged serum deprivation, microscopic images FIG. 8 ([2]; 30 days serum-free): increased cell number
co-localization of biotin staining with COX4 staining (inner mitochondrial membrane), FIG. 6 [3]: co-localization
intracellular streptavidin staining (cellular uptake of biotin), microscopic images FIG. 4 [4]: intense red staining with a perinuclear distribution
mitochondrial potential (TMRM) and filamentous mitochondrial network, FIG. 14 [5]: restore mitochondrial potential in all cells
closure of the scratch area compared to control, FIG. 16 and FIG. 17 [6]: significantly accelerated the closure of the scratch area
effectiveness in reducing scratch area compared to free biotin, FIG. 16 and FIG. 17 [6]: three times more effective
absorption after ip administration ([7]; living mouse, 2 hours): rapidly absorbed
co-localization of streptavidin staining with COX4 staining in retina, FIG. 26 [7, 8]: co-localizes with COX4 staining in the RGC, IPL, INL, and the photoreceptor IS
distribution of staining within retinal layers, FIG. 26 [7, 8]: concentrated in the inner and outer plexiform layers (IPL and OPL)
staining in retinal pigment epithelium (RPE) cells, FIG. 27 [7, 8]: can clearly be seen in the RPE cells
uptake into retina (Streptavidin Alexa Fluor 594 staining), FIG. 26 [7, 8]: clearly taken up in the different layers of the retina
